The test system of experiment [1] is MDA-MB-231 breast cancer cells. The experiment is described as follows: Proliferation inhibitory activity assay against MDA-MB-231 breast cancer cells. The format is cell-based. The following applies: Homo sapiens, 72 hours, CellTiter Glo, relative IC50. The method, boiled down: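 Cells grown in L-15 with 10% FBS at 37 °C, 0% CO2, then exposed next day to compounds at 9 concentrations (DMSO vehicle) for 72 h. Viability read by CellTiter Glo luminescence; relative IC50 from dose-response curve fit.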
Background: Cellular ATP, detected with luciferase, serves as a proxy for viable cell number.

In another experiment the target is CDK12 (Homo sapiens, UniProt Q9NYV4). The experiment is described as follows: CDK12 kinase inhibitory activity assay (33P-ATP filter binding). The experiment is classed as biochemical. The method, boiled down:
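Radiometric filter-binding read-out: after 20 min compound–enzyme/substrate pre-incubation across 9 concentrations, reaction started with ^33P-γ-ATP and run 120 min at room temperature. Filter-bound ^33P-substrate measured after 0.75 % phosphoric acid washes; remaining activity versus DMSO gives IC50.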

The subject of another experiment is BT-20 cells. The experiment is described as follows: Breast cancer cell proliferation inhibitory activity, BT-20. The format is cell-based. As to conditions: Homo sapiens, 72 hours, CellTiter Glo, relative IC50. On the procedure: Experiments were conducted using three types of breast cancer cell lines to measure the cell proliferation inhibitory ability of each Example compound. For HCC70 cells, 100 µL of cell suspension was dispensed into a 96-well plate using RPMI1640 (Invitrogen) medium containing 10 % FBS, followed by incubation in a cell incubator at 37 °C and 5 % CO2. For BT-20 cells, 100 µL of cell suspension was dispensed into a 96-well plate using EMEM (Invitrogen) medium containing 10 % FBS, followed by incubation in a cell incubator at 37 °C and 5 % CO2. For MDA-MB-436 cells, 100 µL of cell suspension was dispensed into a 96-well plate using L-15 (Invitrogen) medium containing 10 % FBS, followed by incubation in a cell incubator at 37 °C and 0 % CO2. The next day, each Example compound dissolved and diluted in DMSO across 9 concentration ranges and a DMSO control group were treated on the cells for 72 hours. After completion of the compound treatment, 100 µL of CellTiter Glo (Promega) reagent was added to each well of the 96-wellplate, followed by shaking for 10 minutes and standing at room temperature for 10 minutes. After inserting the 96-well plate into an Envision plate reader (PerkinElmer), luminescence signals were measured. Relative IC50 values were calculated by fitting a dose-response curve using XL fit (IDBS Ltd) software.
The breast cancer cell proliferation inhibitory activities of the Example compounds measured by the method described above were evaluated according to the following criteria, and the results are presented in Table 15.

The next experiment concerns SNU-1. The experiment is described as follows: Gastric cancer cell proliferation inhibitory activity (CellTiter Glo), SNU-1. The format is cell-based. The following applies: Homo sapiens, SNU1, 72 hours, relative IC50. On the procedure: Experiments were performed using four types of gastric cancer cell lines (AGS, SNU-1, KATO-III, and MKN45) to measure the cell proliferation inhibitory ability of each Example compound. For AGS cells, 90 µL of cell suspension was dispensed into a 96-well plate using F-12K (Gibco) medium containing 10 % FBS, followed by incubation in a cell incubator at 37 °C and 5 % CO2. For SNU-1 and MKN45 cells, 90 µL of cell suspension was dispensed into a 96-well plate using RPMI1640 (Gibco) medium containing 10 % FBS, followed by incubation in a cell incubator at 37 °C and 5 % CO2. For KATO-III cells, 90 uL of cell suspension was dispensed into a 96-well plate using IMDM (Gibco) medium containing 10 % FBS, followed by incubation in a cell incubator at 37 °C and 5 % CO2. The next day, each Example compound dissolved and diluted in DMSO across 9 concentration ranges and a DMSO control group were added at 10 µL to each 96-well plate and treated for 72 hours. After completion of the compound treatment, 100 µL of CellTiter Glo (Promega) reagent was added to each well of the 96-well plate, followed by shaking for 10 minutes and standing at room temperature for 10 minutes. Luminescence signals were measured after inserting the 96-well plate into an Envision plate reader (PerkinElmer). Relative IC50 values were calculated by fitting a dose-response curve using XLfit (IDBS Ltd) software.
The gastric cancer cell proliferation inhibitory activities of the Example compounds measured by the method described above were evaluated according to the following criteria, and the results are presented in Table 16.

Setting [2] is: kinase reaction 120 minutes, 33P-gamma-ATP, read-out: CDK12 IC50.

Where two headings read alike, the source gives them in different places.

As a reminder, the IC50 is the concentration that gives 50% inhibition.

Chain of CDK12 (Q9NYV4 whole entry, species assumed): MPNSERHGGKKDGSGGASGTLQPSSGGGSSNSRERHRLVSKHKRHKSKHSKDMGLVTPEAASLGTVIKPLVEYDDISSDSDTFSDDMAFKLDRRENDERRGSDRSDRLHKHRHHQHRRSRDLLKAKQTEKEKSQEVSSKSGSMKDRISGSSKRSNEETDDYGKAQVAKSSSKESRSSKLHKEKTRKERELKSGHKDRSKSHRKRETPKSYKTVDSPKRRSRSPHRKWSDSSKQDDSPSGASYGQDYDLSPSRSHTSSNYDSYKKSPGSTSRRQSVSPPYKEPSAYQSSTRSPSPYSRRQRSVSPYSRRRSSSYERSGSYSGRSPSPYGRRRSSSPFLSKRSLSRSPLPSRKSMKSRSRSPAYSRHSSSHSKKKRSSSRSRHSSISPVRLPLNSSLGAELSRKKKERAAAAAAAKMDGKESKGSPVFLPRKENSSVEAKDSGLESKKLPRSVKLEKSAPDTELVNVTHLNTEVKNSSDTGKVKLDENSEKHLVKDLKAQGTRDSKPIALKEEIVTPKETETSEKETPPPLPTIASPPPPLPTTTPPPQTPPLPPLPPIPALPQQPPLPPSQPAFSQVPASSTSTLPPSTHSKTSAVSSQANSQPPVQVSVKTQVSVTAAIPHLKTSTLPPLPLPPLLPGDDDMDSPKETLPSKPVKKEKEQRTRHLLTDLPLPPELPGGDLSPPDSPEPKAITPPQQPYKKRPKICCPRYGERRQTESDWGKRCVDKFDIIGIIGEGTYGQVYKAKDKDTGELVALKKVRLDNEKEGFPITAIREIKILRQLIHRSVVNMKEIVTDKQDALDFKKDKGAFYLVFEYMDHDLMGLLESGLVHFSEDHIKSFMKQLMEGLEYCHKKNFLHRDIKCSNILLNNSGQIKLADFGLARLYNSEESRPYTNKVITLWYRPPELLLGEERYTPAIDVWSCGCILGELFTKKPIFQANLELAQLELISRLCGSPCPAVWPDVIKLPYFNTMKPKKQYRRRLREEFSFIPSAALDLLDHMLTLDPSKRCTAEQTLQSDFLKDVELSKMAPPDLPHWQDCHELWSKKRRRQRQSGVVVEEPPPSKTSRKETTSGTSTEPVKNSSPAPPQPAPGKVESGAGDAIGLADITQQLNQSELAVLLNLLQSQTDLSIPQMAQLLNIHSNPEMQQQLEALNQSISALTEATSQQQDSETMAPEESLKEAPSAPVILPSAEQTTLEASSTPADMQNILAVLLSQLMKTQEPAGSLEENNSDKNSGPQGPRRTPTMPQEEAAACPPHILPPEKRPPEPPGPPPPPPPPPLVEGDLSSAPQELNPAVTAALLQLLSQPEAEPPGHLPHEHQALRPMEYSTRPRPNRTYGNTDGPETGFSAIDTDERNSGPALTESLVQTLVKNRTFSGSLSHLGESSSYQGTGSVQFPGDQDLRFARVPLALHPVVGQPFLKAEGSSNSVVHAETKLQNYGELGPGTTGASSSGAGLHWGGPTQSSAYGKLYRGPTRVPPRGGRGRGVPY
Chain of CDK12 (O75909 whole entry partner, species assumed): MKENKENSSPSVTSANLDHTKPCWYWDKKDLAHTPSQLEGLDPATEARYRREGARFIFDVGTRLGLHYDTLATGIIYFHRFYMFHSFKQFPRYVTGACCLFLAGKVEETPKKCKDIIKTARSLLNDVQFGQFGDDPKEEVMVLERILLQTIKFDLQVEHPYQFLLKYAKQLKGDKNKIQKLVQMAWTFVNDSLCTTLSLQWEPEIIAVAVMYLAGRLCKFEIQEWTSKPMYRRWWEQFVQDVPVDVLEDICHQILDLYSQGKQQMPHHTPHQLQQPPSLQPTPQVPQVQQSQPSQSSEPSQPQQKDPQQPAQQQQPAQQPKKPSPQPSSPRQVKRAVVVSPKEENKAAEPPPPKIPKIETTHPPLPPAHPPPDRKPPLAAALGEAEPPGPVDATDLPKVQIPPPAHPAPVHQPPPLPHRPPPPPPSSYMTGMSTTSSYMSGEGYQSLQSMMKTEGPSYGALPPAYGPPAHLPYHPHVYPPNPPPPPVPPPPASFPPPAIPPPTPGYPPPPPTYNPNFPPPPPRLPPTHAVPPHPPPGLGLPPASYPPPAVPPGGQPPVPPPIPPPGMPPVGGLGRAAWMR

Regarding `Nc1ncc(-c2cc(NCc3nc4cc(Cl)c(Cl)cc4[nH]3)c3ncc(C(F)(F)F)n3n2)cn1` [Example 40], the IC50 in experiment [1] was at most 50 nM; on CDK12 it was under 100 nM.
For `N#CC1CN(c2cc(NCc3nc4cc(Cl)c(Cl)cc4[nH]3)c3ncc(C(F)(F)F)n3n2)C1` [Example 30, 1-(8-(((5,6-dichloro-1H-benzol[d]imidazol-2-yl)methyl)amino)-3-(trifluoromethyl)imidazo[1,2-b]pyridazin-6-yl)azetidine-3-carbonitrile], the IC50 in the experiment on BT-20 cells is at most 50 nM; in the experiment on SNU-1 it was at most 200 nM; in experiment [1], at most 50 nM; on CDK12, 100 to 500 nM.
`CN1CCN(c2cc(NCc3nc4cc(Cl)c(Cl)cc4[nH]3)c3ncc(C(F)(F)F)n3n2)CC1` [Example 29, N-((5,6-dichloro-1H-benzo[d]imidazol-2-yl)methyl)-6-(4-methylpiperazin-1-yl)-3-(trifluoromethyl)imidazo[1,2-b]pyridazin-8-amine]: the IC50 in the experiment on BT-20 cells is at most 50 nM; with SNU-1, at most 200 nM; in experiment [1], at most 50 nM; on CDK12 (setting [2]) it was under 100 nM.
`CN1CCN(c2cc(NCc3nc4ccc(F)c(F)c4[nH]3)c3ncc(C(F)(F)F)n3n2)CC1` [Example 8, N-((6,7-difluoro-1H-benzo[d]imidazol-2-yl)methyl)-6-(4-methylpiperazin-1-yl)-3-(trifluoromethyl)imidazo[1,2-b]pyridazin-8-amine]: the IC50 was at most 50 nM in the experiment on BT-20 cells, at most 200 nM in the experiment on SNU-1, at most 50 nM in experiment [1] and under 100 nM at CDK12 (setting [2]).

The values are drawn from patent EP4813991A1 (iLeadBMS Co., Ltd., priority 2023, dated 2025).
